Consider one compound from patent publication US20020055512A1, “Compositions for delivery of a cortisol antagonist” (CORTENDO AB., priority 2000, published 2002).

Structures are written as SMILES.

This data set is described as follows: Solubility of ketoconazole in lipid excipients (observation of undissolved crystals). As to conditions: ambient room temperature; estimated. Type of data set: physicochemical. The protocol:
The solubility of ketoconazole in glycerol monooleate was assessed at 37° C. according to the following method. 2 g samples of ketoconazole (USP) and glycerol monooleate were mixed together in various proportions and put on a magnetic stirrer at 37° C. Samples containing 1, 3 and 5 wt. % of ketoconazole were investigated for the observation of ketoconazole crystals. Samples containing 1 wt. % ketoconazole were completely dissolved after less than 18 h but more than 2 h. Samples containing 3 wt % ketoconazole were almost homogeneous after 48 h, after which no further change of the sample took place. […] Thus, at 37° C. ketoconazole has a limited solubility in glycerol monooleate. It is estimated to be between 1 and 3 wt. %.
The solubility of ketoconazole in oleic acid was assessed at ambient room temperature using the method described in Example 1. Samples containing 5, 10, 15 and 33 wt. % of ketoconazole were mixed with oleic acid and the appearance of undissolved ketoconazole was investigated after 24 and 48 h. After 24 hours samples containing 5 wt. % ketoconazole were completely dissolved and after 48 h samples containing 10 wt. % of ketoconazole were completely homogenous and all ketoconazole was dissolved. Thus the solubility of ketoconazole in oleic acid is estimated to be about 10 wt. %.

With `CC(=O)N1CCN(c2ccc(OCC3COC(Cn4ccnc4)(c4ccc(Cl)cc4Cl)O3)cc2)CC1` (stereo not shown) [ketoconazole, Ketoconazole], the “solubility of ketoconazole in oleic acid” value is on record as “about 10 wt. %”.
